Here are results for 28 compounds from patent publication US20230365530A1, “QUINAZOLINE-2,4-DIAMINE DERIVATIVE AND PHARMACEUTICAL COMPOSITION FOR PREVENTING OR TREATING CANCER COMPRISING SAME AS ACTIVE INGREDIENT” (THE ASEAN FOUNDATION, priority 2020, published 2023).

EHMT2 (Euchromatic histone-lysine N-methyltransferase 2), sequence (Q96KQ7 whole entry): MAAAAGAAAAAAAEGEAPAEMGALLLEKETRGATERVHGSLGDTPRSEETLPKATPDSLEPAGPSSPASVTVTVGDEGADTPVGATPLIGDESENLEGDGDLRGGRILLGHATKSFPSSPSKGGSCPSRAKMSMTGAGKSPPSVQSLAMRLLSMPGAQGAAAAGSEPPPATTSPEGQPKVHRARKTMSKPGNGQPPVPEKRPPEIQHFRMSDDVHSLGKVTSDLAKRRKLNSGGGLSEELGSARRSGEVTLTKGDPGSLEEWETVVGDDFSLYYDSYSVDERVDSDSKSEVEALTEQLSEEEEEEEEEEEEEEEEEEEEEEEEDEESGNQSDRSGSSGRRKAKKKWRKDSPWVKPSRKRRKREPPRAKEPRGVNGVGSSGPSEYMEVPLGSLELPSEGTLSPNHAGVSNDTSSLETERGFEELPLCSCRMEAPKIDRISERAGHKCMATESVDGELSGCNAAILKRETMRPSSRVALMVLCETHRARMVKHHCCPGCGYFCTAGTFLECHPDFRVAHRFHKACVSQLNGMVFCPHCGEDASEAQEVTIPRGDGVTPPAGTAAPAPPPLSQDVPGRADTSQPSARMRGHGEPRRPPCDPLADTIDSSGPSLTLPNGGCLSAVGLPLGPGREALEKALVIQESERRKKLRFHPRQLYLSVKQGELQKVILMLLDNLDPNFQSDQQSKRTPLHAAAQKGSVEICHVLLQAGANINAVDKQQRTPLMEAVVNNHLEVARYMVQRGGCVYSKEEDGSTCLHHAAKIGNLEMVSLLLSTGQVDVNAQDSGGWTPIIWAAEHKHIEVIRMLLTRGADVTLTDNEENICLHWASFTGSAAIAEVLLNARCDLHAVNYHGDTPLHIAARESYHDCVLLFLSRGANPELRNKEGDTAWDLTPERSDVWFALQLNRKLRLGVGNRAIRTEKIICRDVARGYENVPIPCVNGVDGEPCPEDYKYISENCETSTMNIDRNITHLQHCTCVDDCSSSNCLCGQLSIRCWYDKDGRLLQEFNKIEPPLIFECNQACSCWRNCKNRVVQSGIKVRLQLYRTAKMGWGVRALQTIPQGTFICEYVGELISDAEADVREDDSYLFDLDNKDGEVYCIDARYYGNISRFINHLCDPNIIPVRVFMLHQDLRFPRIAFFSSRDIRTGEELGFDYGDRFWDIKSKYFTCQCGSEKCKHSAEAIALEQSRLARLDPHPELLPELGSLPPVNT

The test addresses EHMT2 (Euchromatic histone-lysine N-methyltransferase 2) (Homo sapiens (Human), UniProt Q96KQ7). Briefly: EHMT2 enzyme inhibition, LANCE TR-FRET. The format is biochemical. Particulars: histone H3 peptide, 1 hour at room temperature. The procedure: In order to analyze the enzyme inhibitory efficacy of the compounds of Examples 1 to 89, EHMT2 (Euchromatic histone-lysine N-methyltransferase 2) enzyme activity was measured using the LANCE TR-FRET™ analysis method of Perkin Elmer. When the EHMT2 enzyme is activated, the 9th lysine residue of the biotinylated-histone peptide is methylated and the EU-conjugated antibody is combined to the methylated histone peptide. Then, when the complex is irradiated with light of excitation wavelength, the complex emits light having a wavelength of 665 nm through FRET phenomenon. Accordingly, fluorescence was measured, and IC50 values were calculated through a software to evaluate the EHMT2 enzyme activity inhibitory effect of the compounds of Examples 1 to 89.
Specific experimental methods are as follows. First, the compounds of Examples 1 to 89 of 1 nM to 100 μM (4× conc.) were put into a 384 well plate (25 μL/well), and 2 μM EEMT2/G9a enzyme (4× conc.) was put into the 384 well plate (25 μL/well). The plate was then centrifuged at 1,500 rpm for 5 seconds after sealing the plate with plate sealing foil. After incubating the EHMT2/G9a enzyme, SAM, and the compounds of Examples above at room temperature for 10 minutes, 2 μM histone H3 peptide (4× conc.) was added to the 384-well plate (25 μL/well). After sealing the plate with plate sealing foil and centrifuging at 1,500 rpm for 5 seconds, an enzymatic reaction was performed at room temperature for 1 hour. Upon completion of the enzyme reaction, 5 μL each of 200 nM Ulight™-Streptavidin (4× conc.) and 8 nM Eu-antibody (4× conc.) was added to each well of the plate. The plate was sealed with plate sealing foil, centrifuged at 1,500 rpm for 5 seconds and reacted at room temperature for 1 hour. The signal values were measured with Envision (Ex 320 nm, Em 665 nm), and all background values obtained by reacting without enzyme were deleted from the measured raw data values. Then, the EHMT2 enzyme activity inhibitory effect of the compounds of Examples 1 to 89 was converted into % values, and compared with the EHMT2 activity when treated with 4% DMSO vehicle (=0 nM compound) as 100%.
(TR-FRET usually uses a lanthanide donor and a delayed reading to cut background.)
Turning to `COc1cc2c(NC3CCCCC3)nc(N3CCCCC3)nc2cc1C#CCCN(C)C` [Example 23, N-cyclohexyl-7-(4-(dimethylamino)-1-butyne-1-yl)-6-methoxy-2-(piperidine-1-yl)quinazoline-4-amine], the IC50 (in general, the concentration needed to halve the response being measured) lay in the range of 10000 to 100000 nM.

Compound `COc1cc2c(NCCN(C)C)nc(N(C)C)nc2cc1C#CCCN1CCCC1` [Example 61, N4-(2-(dimethylamino)ethyl)-6-methoxy-N2,N2-dimethyl-7-(4-(pyrrolidine-1-yl)-1-butyne-1-yl)quinazoline-2,4-diamine] registered an IC50 below 100 nM.

`COc1cc2c(NC3CCN(C4CC4)CC3)nc(N3CC[C@H](F)C3)nc2cc1C#CCCN1CCCC1` [Example 75, (S)-N-(1-cyclopropylpiperidine-4-yl)-2-(3-fluoropyrrolidine-1-yl)-6-methoxy-7-(4-(pyrrolidine-1-yl)-1-butyne-1-yl)quinazoline-4-amine] came in with an IC50 below 100 nM.

The compound `COc1cc2c(NC3CCN(C(C)C)CC3)nc(N3CC[C@H](F)C3)nc2cc1C#CCCN1CCCC1` [Example 57, (S)-2-(3-fluoropyrrolidine-1-yl)-N-(1-isopropylpiperidine-4-yl)-6-methoxy-7-(4-(pyrrolidine-1-yl)-1-butyne-1-yl)quinazoline-4-amine] came in with an IC50 below 100 nM.

`COc1cc2c(NC3CCN(C(C)C)CC3)nc(N3CCCC3)nc2cc1C#CCCN(C)C` [Example 6, 7-(4-(dimethylamino)-1-butyne-1-yl)-N-(1-isopropylpiperidine-4-yl)-6-methoxy-2-(pyrrolidine-1-yl)quinazoline-4-amine] had an IC50 below 100 nM.

`COc1cc2c(NCCN(C)C)nc(N3CC[C@H](F)C3)nc2cc1C#CCCN1CCCC1` [Example 79, (S)-N1-(2-(3-fluoropyrrolidine-1-yl)-6-methoxy-7-(4-(pyrrolidine-1-yl)-1-butyne-1-yl)quinazoline-4-yl)-N2,N2-dimethylethane-1,2-diamine] returned an IC50 of 100 to 1000 nM.

`COc1cc2c(NC3CCN(C(C)C)CC3)nc(N3CCC(F)(F)CC3)nc2cc1C#CCCN(C)C` [Example 4] registered an IC50 of 1000 to 10000 nM.

Compound `COc1cc2c(NCC3CCN(C)CC3)nc(N3CCCCC3)nc2cc1C#CCCN(C)C` [Example 31, 7-(4-(dimethylamino)-1-butyne-1-yl)-6-methoxy-N-((1-methylpiperidine-4-yl)methyl)-2-(piperidine-1-yl)quinazoline-4-amine] showed an IC50 of 1000 to 10000 nM.

Take `COc1cc2c(NC3CCN(C)CC3)nc(N3CCCCC3)nc2cc1C#CCCN(C)C` [Example 22, 7-(4-(dimethylamino)-1-butyne-1-yl)-6-methoxy-N-(1-methylpiperidine-4-yl)-2-(piperidine-1-yl)quinazoline-4-amine]: the IC50 fell in the range of 100 to 1000 nM.

The compound `COc1cc2c(NC3CCN(C(C)C)CC3)nc(N3CCC4(CCCC4)C3)nc2cc1C#CCCN(C)C` [Example 9] gave an IC50 below 100 nM.

As to `COc1cc2c(NC3CCN(C(C)C)CC3)nc(N3CCCCC3)nc2cc1C#CCCN1CCC(C)CC1` [Example 15, N-(1-isopropylpiperidine-4-yl)-6-methoxy-7-(4-(4-methylpiperidine-1-yl)-1-butyne-1-yl)-2-(piperidine-1-yl)quinazoline-4-amine], the IC50 is 1000 to 10000 nM.

`COc1cc2c(NC3CC(C)(C)NC(C)(C)C3)nc(N3CCCC3)nc2cc1C#CCCN1CCCC1` [Example 73, 6-methoxy-2-(pyrrolidine-1-yl)-7-(4-(pyrrolidine-1-yl)-1-butyne-1-yl)-N-(2,2,6,6-tetramethylpiperidine-4-yl)quinazoline-4-amine] gave a concentration for half-maximal inhibition (IC50) below 100 nM.

`COc1cc2c(NC3CCN(C(C)C)CC3)nc(N3CCCC3)nc2cc1/C=C/CCN1CCCC1` [Example 85, (E)-N-(1-isopropylpiperidine-4-yl)-6-methoxy-2-(pyrrolidine-1-yl)-7-(4-(pyrrolidine-1-yl)-1-butene-1-yl)quinazoline-4-amine] returned an IC50 below 100 nM.

In turn, `COc1cc2c(NC3CCN(C(C)C)CC3)nc(N3CCN(C)CC3)nc2cc1C#CCCN1CCCCC1` [Example 39, N-(1-Disopropylpiperidine-4-yl)-6-methoxy-2-(4-methylpiperazine-1-yl)-7-(4-(piperidine-1-yl)-1-butyne-1-yl)quinazoline-4-amine] came in with an IC50 of 1000 to 10000 nM.

`COc1cc2c(NC3CCN(C(C)C)CC3)nc(N3CCN(C)CC3)nc2cc1C#CCCN1CCCC1` [Example 38, N-(1-isopropylpiperidine-4-yl)-6-methoxy-2-(4-methylpiperazine-1-yl)-7-(4-(pyrrolidine-1-yl)-1-butyne-1-yl)quinazoline-4-amine] yielded an IC50 of 100 to 1000 nM.

For the compound `CCN1CCC(Nc2nc(N3CCCC3)nc3cc(C#CCCN4CC[C@H](F)C4)c(OC)cc23)CC1` [Example 78, (S)-N-(1-ethylpiperidine-4-yl)-7-(4-(3-fluoropyrrolidine-1-yl)-1-butyne-1-yl)-6-methoxy-2-(pyrrolidine-1-yl)quinazoline-4-amine], the IC50 is below 100 nM.

The compound `COc1cc2c(N[C@@H]3CCCN(Cc4ccccc4)C3)nc(N3CCCCC3)nc2cc1C#CCCN(C)C` [Example 19, (R)-N-(1-benzylpiperidine-3-yl)-7-(4-(dimethylamino)-1-butyne-1-yl)-6-methoxy-2-(piperidine-1-yl)quinazoline-4-amine] gave an IC50 of 10000 to 100000 nM.

With `COc1cc2c(NC3CCN(C(C)C)CC3)nc(N3C[C@@H]4C[C@@H]4[C@@H]3CO)nc2cc1C#CCCN1CCCCC1` [Example 47, ((1S,2R,5R)-3-(4-((1-isopropylpiperidine-4-yl)amino)-6-methoxy-7-(4-(piperidine-1-yl)-1-butyne-1-yl)quinazoline-2-yl)-3-azabicyclo[3.1.0]hexane-2-yl)methanol], the IC50 was below 100 nM.

In the case of `COc1cc2c(NCCCN(C)C)nc(N3CCCCC3)nc2cc1C#CCCN(C)C` [Example 21, N1-(7-(4-(dimethylamino)-1-butyne-1-yl)-6-methoxy-2-(piperidine-1-yl)quinazoline-4-yl)-N3,N3-dimethylpropane-1,3-diamine], the IC50 lay in the range of 100 to 1000 nM.

Turning to `COc1cc2c(NC3CCN(CCO)CC3)nc(N(C)C)nc2cc1C#CCCN1CCCC1` [Example 87, 2-(4-((2-(dimethylamino)-6-methoxy-7-(4-(pyrrolidine-1-yl)-1-butyne-1-yl)quinazoline-4-yl)amino)piperidine-1-yl) ethanol], the IC50 is below 100 nM.

The compound `CCN1CCC(Nc2nc(N3CCCCC3)nc3cc(C#CCCN(C)C)c(OC)cc23)CC1` [Example 50, 7-(4-(dimethylamino)-1-butyne-1-yl)-N-(1-ethylpiperidine-4-yl)-6-methoxy-2-(piperidine-1-yl)quinazoline-4-amine] registered an IC50 below 100 nM.

Take `COc1cc2c(NC3CCN(C4CC4)CC3)nc(N3CCCCC3)nc2cc1C#CCCN1CCCC1` [Example 53, N-(1-cyclopropylpiperidine-4-yl)-6-methoxy-2-(piperidine-1-yl)-7-(4-(pyrrolidine-1-yl)-1-butyne-1-yl)quinazoline-4-amine]: the concentration for half-maximal inhibition (IC50) was below 100 nM.

Compound `COc1cc2c(NCc3cccnc3)nc(N3CCCCC3)nc2cc1C#CCCN(C)C` [Example 26, 7-(4-(dimethylamino)-1-butyne-1-yl)-6-methoxy-2-(piperidine-1-yl)-N-(pyridine-3-ylmethyl)quinazoline-4-amine] had an IC50 of 100 to 1000 nM.

Compound `COc1cc2c(NC3CCN(C(C)C)CC3)nc(N3CCN(C)CC3)nc2cc1C#CCCN(C)C` [Example 7, 7-(4-(dimethylamino)-1-butyne-1-yl)-N-(1-isopropylpiperidine-4-yl)-6-methoxy-2-(4-methylpiperazine-1-yl)quinazoline-4-amine] displayed an IC50 of 100 to 1000 nM.

On to `COc1cc2c(NC3CCN(C(C)C)CC3)nc(N3CCC4(CCCC4)C3)nc2cc1C#CCCN1CCCCC1` [Example 41, N-(1-isopropylpiperidine-4-yl)-6-methoxy-7-(4-(piperidine-1-yl)-1-butyne-1-yl)-2-(2-azaspiro[4.4]nonane-2-yl)quinazoline-4-amine], for which the IC50 fell in the range of 1000 to 10000 nM.

In the case of `COc1cc2c(NC3CCN(C(C)C)CC3)nc(N3CCCCCC3)nc2cc1C#CCCN(C)C` [Example 8, 2-(azepane-1-yl)-7-(4-(dimethylamino)-1-butyne-1-yl)-N-(1-isopropylpiperidine-4-yl)-6-methoxyquinazoline-4-amine], the IC50 is below 100 nM.

Turning to `COc1cc2c(NC3CCN(C4CC4)CC3)nc(N3CC[C@@H](F)C3)nc2cc1C#CCCN(C)C` [Example 76, (R)-N-(1-cyclopropylpiperidine-4-yl)-7-(4-(dimethylamino)-1-butyne-1-yl)-2-(3-fluoropyrrolidine-1-yl)-6-methoxyquinazoline-4-amine], the IC50 fell in the range of 1000 to 10000 nM.

`COc1cc2c(NC3CCN(c4ccccc4)CC3)nc(N3CCCCC3)nc2cc1C#CCCN(C)C` [Example 25, 7-(4-(dimethylamino)-1-butyne-1-yl)-6-methoxy-N-(1-phenylpiperidine-4-yl)-2-(piperidine-1-yl)quinazoline-4-amine] yielded an IC50 of 1000 to 10000 nM.
